Reference: US20160317419A1, “METHOD OF IMPROVING SKIN HEALTH AND COMPOSITIONS THEREFOR” (The Procter & Gamble Company, priority 2015, published 2016)

Tests used:
Format in all cases: cell-based
[1] = test system: antioxidant response element (ARE); experiment: ARE Assay (ARE-32 luciferase reporter cell line); conditions: 24 hrs, control subtracted
Protocol: ARE activation was quantitated using the ARE-32 reporter cell line available from CXR-Biosciences as described in the ARE Assay below. ARE-32 is a stable MCF7 cell line containing pGL8x-ARE (8 copies of the rat GST ARE linked to the luciferase gene) and pCDNA3.1, which contains the neomycin selectable marker. Selection was performed in the presence of G418 and resistant clones were isolated. Clones were screened for induction of luciferase in response to tBHQ. The ARE-32 cells are maintained routinely in the DMEM (phenol red free) containing: 10% FBS, 50 units/ml penicillin & 50 μg/ml streptomycin, 0.8 mg/ml G418. Cells are subcultured every 3-4 days. Cells were frozen in medium that contains 90% FBS and 10% DMSO. In a 96 well-plate, seed 1×10^4 cells/well in 100 μl DMEM containing 50 units/ml penicillin, 50 μg/ml streptomycin, 0.8 mg/ml G418 and 10% FBS. Next, incubate the cells at 37° C. in a 5% CO2 incubator for 24 hrs, and then replace the medium with 100 μl fresh media. Treat with test compounds at 2 ul per well, positive control was 25 uM TBHQ. (10 mM tBHQ of stock solution freshly prepared in DMSO). Add 100 ul of media after treatment for a final assay volume of 200 uL. Incubate the cells at 37° C. in the CO2 incubator for another 24 hrs. Assay for luciferase activity with a STEADY-GLO brand assay system according to the manufacturer's instructions. A general schematic for how the ARE reporter assay operates to identify agents that promote transcription off the ARE is described in U.S. Publication No. 2011/0262570. The results of the test are illustrated in Table 1 and FIG. 3. The ARE activity for […] (“NR”), niacinamide (“N”) and the combination of nicotinamide riboside and niacinamide is reported as net luminescence in Table 1. Net luminescence for a test sample is determined by subtracting the luminescence value of the control from the luminescence value of the test sample. The calculated net luminescence for NR+N is the sum of the individual measured luminescence values for NR and N.

[2] = test system: keratinocytes; experiment: ATP Assay: ATP depletion caused by hydrogen peroxide in keratinocytes (Cell Titer-Glo); conditions: 1 hour
Protocol: The keratinocytes were cultured in T150 flasks using EPILIFE brand culture medium (calcium free and phenol red free, supplemented with penicillin/streptomycin and keratinocytes growth supplement, Invitrogen cat# […]500). The keratinocytes were then plated in 24 well plates with 40,000 cells/well and 1 ml of culture medium. After 24 hours, the keratinocytes were treated with 500 uM hydrogen peroxide alone, 400 uM niacinamide, 400 uM nicotinamide riboside or a combination of niacinamide and nicotinamide riboside (400 uM each) for 1 hour. Untreated keratinocytes were used as a control (i.e., keratinocytes in culture medium). The keratinocytes were washed in PBS and ATP levels were measured using the Cell Titer-Glo® brand ATP assay available from Promega, Madison, Wis. as catalogue # G7571/2/3 according to the manufacturer's instructions. Luminescence was measured on a SPECTRAMAX M3 brand microplate reader (Molecular Devices, Sunnyvale, Calif.). The net luminescence for a test sample is calculated by subtracting the observed luminescence value for the control from the observed luminescence value for the test sample.

[3] = test system: human dermal fibroblasts obtained from the BJ cell line; experiment: ECAR Method: glycolytic ATP production rate of fibroblasts exposed to hydrogen peroxide; conditions: for % Change from Control: vs media control
Protocol: Glycolytic ATP production by fibroblasts exposed to hydrogen peroxide was determined using an XF Extracellular Flux brand analyzer available from Seahorse Bioscience, Massachusetts The analyzer measured extracellular acidification rate (“ECAR”) in real time, which correlates to glycolytic ATP production. The cells used in this test were frozen human dermal fibroblasts obtained from the BJ cell line commercially available from ATCC, Bethesda, Md. […] The fibroblasts were plated at 8×10^4 cells per well in gelatin-coated plates 24 hours prior to testing. Each well included 100 μL of the culture medium described above. The gelatin-coated plates are prepared by coating each well in a multi-well plate (e.g., 24-well or 96-well plates available from Seahorse Biosciences, Massachusetts) with 0.2% gelatin (protein solution available from Sigma) diluted with phosphate buffered saline (“PBS”). The gelatin is diluted 1:10 to 0.2% in sterile PBS at 37° C., and then 50 uL of the diluted gelatin solution is added to each well and incubated at room temperature for 30 minutes. Excess liquid is removed by aspiration without touching the wells and the surface is allowed to dry for at least 2 hours. Hydrogen peroxide is a well-known ROS, and is used in this example as a source of oxidative stress on the fibroblasts being tested. A stressor solution of hydrogen peroxide was prepared at 10× working concentration in the fibroblast test medium described above. The test agents (i.e., nicotinamide riboside, niacinamide, and nicotinamide riboside+niacinamide in combination) were prepared at 10× the final working concentration in the fibroblast test medium to provide test agent solutions. The stressor solution and the test agent solutions were warmed to 37° C. and pH adjusted to 7.4. A fibroblast test medium was made from Dulbecco's Modified Eagle Medium (available from Seahorse Bioscience), 25 mM glucose and 1 mM pyruvate. The fibroblast test medium was warmed to 37° C. and the pH adjusted to 7.4. The cells were grown and plated at 37° C. and 5% CO2 air. The culture medium in the wells was replaced by the fibroblast test medium 1 hour prior to taking measurements. Each well contained approximately 8×10^4 cells and 600 μL of fibroblast test medium (i.e., DMEM, 25 mM glucose and 1 mM pyruvate) at 37° C. and pH 7.4. The plates containing the samples to be tested were loaded into the analyzer and equilibrated according to the manufacturer's instructions. The test agent solutions and stressor solution were each placed in an automated injection port of the XF cartridge plate. The analyzer was programmed to sequentially run a two minute mix cycle, a two minute wait cycle, and a 3 minute measurement cycle continuously for at least 88 minutes. Data points were collected and recorded by the analyzer. The analyzer was allowed to complete three cycles prior to the addition of a stressor solution or test agent solution to provide a basal ECAR value. After the third cycle was completed (i.e., about 21 minutes after detection began), the test solution and/or stressor solution was added to the wells by the analyzer from the appropriate injection port. A stressor solution was added to the well in sufficient amount to provide 1.5 mM hydrogen peroxide in the well. The test agent solution was added in sufficient amount to provide 250 μM or 500 μM niacinamide or nicotinamide riboside in the well.

[4] = 400 uM (each) with 500 uM hydrogen peroxide
[5] = 500 μM test agent with 1.5 mM hydrogen peroxide

NC(=O)c1cccnc1 [N, niacinamide]
Net Luminescence ([1]; NR 0.011 w/v %, N 0.0125 w/v %): 13
Net Luminescence ([1]; NR 0.021 w/v %, N 0.025 w/v %): 26
Net Luminescence ([1]; NR 0.042 w/v %, N 0.05 w/v %): 71
Net Luminescence ([1]; NR 0.0842 w/v %, N 0.1 w/v %): 75
% depletion vs. control (ATP) [2, 4]: 89.7%
Net Luminescence AVG [2, 4]: 6539
% depletion vs. control (ATP) ([2]; 400 uM (each) with 500 uM hydrogen peroxide, listed as niacinamide): about 89.7%
Observed ECAR [3, 5]: 15.35 mpH/min
% Change from Control [3, 5]: −48.6%

nicotinamide riboside [NR]
Net Luminescence ([1]; NR 0.011 w/v %, N 0.0125 w/v %): 205
Net Luminescence ([1]; NR 0.021 w/v %, N 0.025 w/v %): 594
Net Luminescence ([1]; NR 0.042 w/v %, N 0.05 w/v %): 1845
Net Luminescence ([1]; NR 0.0842 w/v %, N 0.1 w/v %): 5176
% depletion vs. control (ATP) [2, 4]: 96.9%
Net Luminescence AVG [2, 4]: 1971.5
% depletion vs. control (ATP) ([2]; 400 uM (each) with 500 uM hydrogen peroxide, listed as nicotinamide riboside): ~96.9%
Observed ECAR [3, 5]: 14.31 mpH/min
% Change from Control [3, 5]: −52.1%

OO [Hydrogen Peroxide, hydrogen peroxide, reference compound]
% depletion vs. control (ATP) ([2]; 500 uM hydrogen peroxide alone): ~97.5%
Net Luminescence AVG ([2]; 500 uM hydrogen peroxide alone): 1556
% depletion vs. control (ATP) ([2]; 500 uM hydrogen peroxide alone, listed as H2O2): 97.5%
Observed ECAR ([3]; 1.5 mM hydrogen peroxide alone): 8.96 mpH/min
% Change from Control ([3]; 1.5 mM hydrogen peroxide alone): −70.0%
